Test results: ChEMBL document CHEMBL1255249, “Urine bactericidal activity against Escherichia coli isolates exhibiting different resistance phenotypes/genotypes in an in vitro pharmacodynamic model simulating urine concentrations obtained after oral administration of a 400-milligram single dose of cefditoren-pivoxil” (Antimicrob Agents Chemother, 2008)
Converted amounts (≈) assume the structure as drawn. The source made the active and inactive calls. The rule behind the calls is not given here.

How the values were obtained:
Escherichia coli [1] = test: Antimicrobial activity against Escherichia coli S1 expressing penicillinase TEM-1; type: functional
Escherichia coli [2] = test: Antimicrobial activity against Escherichia coli S2 expressing penicillinase TEM-1; type: functional
Escherichia coli [3] = test: Antimicrobial activity against Escherichia coli S3 overexpressing penicillinase TEM-1; type: functional
Escherichia coli [4] = test: Antimicrobial activity against Escherichia coli S4 expressing inhibitor-resistant TEM-34; type: functional
Escherichia coli [5] = test: Antimicrobial activity against Escherichia coli S5 expressing extended-spectrum beta-lactamase TEM-116; type: functional
Escherichia coli [6] = test: Antimicrobial activity against Escherichia coli S6 expressing extended-spectrum beta-lactamase TEM-116 and SHV-12; type: functional
Escherichia coli [7] = test: Antimicrobial activity against Escherichia coli S7 expressing extended-spectrum beta-lactamase SHV-12 and penicillinase TEM-1; type: functional
Escherichia coli [8] = test: Antimicrobial activity against Escherichia coli S7 expressing extended-spectrum beta-lactamase SHV-12 and penicillinase TEM-1 in presence of beta-lactamase inhibitor clavulanic acid; type: functional
Escherichia coli [9] = test: Antimicrobial activity against Escherichia coli S6 expressing extended-spectrum beta-lactamase TEM-116 and SHV-12 in presence of beta-lactamase inhibitor clavulanic acid; type: functional
Escherichia coli [10] = test: Antimicrobial activity against Escherichia coli S5 expressing extended-spectrum beta-lactamase TEM-116 in presence of beta-lactamase inhibitor clavulanic acid; type: functional
Escherichia coli [11] = test: Antimicrobial activity against Escherichia coli S3 overexpressing penicillinase TEM-1 in presence of beta-lactamase inhibitor clavulanic acid; type: functional
Escherichia coli [12] = test: Antimicrobial activity against Escherichia coli S4 expressing inhibitor-resistant TEM-34 in presence of beta-lactamase inhibitor clavulanic acid; type: functional
Escherichia coli [13] = test: Antimicrobial activity against Escherichia coli S2 expressing penicillinase TEM-1 in presence of beta-lactamase inhibitor clavulanic acid; type: functional
Escherichia coli [14] = test: Antimicrobial activity against Escherichia coli S1 expressing penicillinase TEM-1 in presence of beta-lactamase inhibitor clavulanic acid; type: functional
Homo sapiens [15] = test: Drug level in human urine at […], po after 8 to 12 hrs; type: ADME, organism-based; set-up: route oral; conditions: in vivo
Escherichia coli [16] = test: Antimicrobial activity against Escherichia coli; type: functional
Homo sapiens [17] = test: Clearance in human at […], po after 3 hrs; type: ADME, organism-based; set-up: route oral; conditions: in vivo
Homo sapiens [18] = test: Clearance in human at […], po after 3 hrs to 5 hrs; type: ADME, organism-based; set-up: route oral; conditions: in vivo
Homo sapiens [19] = test: Clearance in human at […], po after 5 hrs to 12 hrs; type: ADME, organism-based; set-up: route oral; conditions: in vivo
Escherichia coli [20] = test: Antimicrobial activity against Escherichia coli S1 expressing penicillinase TEM-1 after 8 hrs; type: functional, organism-based
Escherichia coli [21] = test: Antimicrobial activity against Escherichia coli S2 expressing penicillinase TEM-1 after 8 hrs; type: functional, organism-based
Escherichia coli [22] = test: Antimicrobial activity against Escherichia coli S3 overexpressing penicillinase TEM-1 after 8 hrs; type: functional, organism-based
Escherichia coli [23] = test: Antimicrobial activity against Escherichia coli S4 expressing inhibitor-resistant TEM-34 after 8 hrs; type: functional, organism-based
Escherichia coli [24] = test: Antimicrobial activity against Escherichia coli S5 expressing extended-spectrum beta-lactamase TEM-116 after 8 hrs; type: functional, organism-based
Escherichia coli [25] = test: Antimicrobial activity against Escherichia coli S6 expressing extended-spectrum beta-lactamase TEM-116 and SHV-12 after 8 hrs; type: functional, organism-based
Escherichia coli [26] = test: Antimicrobial activity against Escherichia coli S7 expressing extended-spectrum beta-lactamase SHV-12 and penicillinase TEM-1 after 8 hrs; type: functional, organism-based
Escherichia coli [27] = test: Antimicrobial activity against Escherichia coli S1 expressing penicillinase TEM-1 after 12 hrs; type: functional, organism-based
Escherichia coli [28] = test: Antimicrobial activity against Escherichia coli S2 expressing penicillinase TEM-1after 12 hrs; type: functional, organism-based
Escherichia coli [29] = test: Antimicrobial activity against Escherichia coli S3 overexpressing penicillinase TEM-1after 12 hrs; type: functional, organism-based
Escherichia coli [30] = test: Antimicrobial activity against Escherichia coli S4 expressing inhibitor-resistant TEM-34 after 12 hrs; type: functional, organism-based
Escherichia coli [31] = test: Antimicrobial activity against Escherichia coli S5 expressing extended-spectrum beta-lactamase TEM-116 after 12 hrs; type: functional, organism-based
Escherichia coli [32] = test: Antimicrobial activity against Escherichia coli S6 expressing extended-spectrum beta-lactamase TEM-116 and SHV-12 after 12 hrs; type: functional, organism-based
Escherichia coli [33] = test: Antimicrobial activity against Escherichia coli S7 expressing extended-spectrum beta-lactamase SHV-12 and penicillinase TEM-1 after 12 hrs; type: functional, organism-based
Escherichia coli [34] = test: Antimicrobial activity against Escherichia coli S1 expressing penicillinase TEM-1 after 24 hrs; type: functional, organism-based
Escherichia coli [35] = test: Antimicrobial activity against Escherichia coli S2 expressing penicillinase TEM-1after 24 hrs; type: functional, organism-based
Escherichia coli [36] = test: Antimicrobial activity against Escherichia coli S3 overexpressing penicillinase TEM-1 after 24 hrs; type: functional, organism-based
Escherichia coli [37] = test: Antimicrobial activity against Escherichia coli S4 expressing inhibitor-resistant TEM-34 after 24 hrs; type: functional, organism-based
Escherichia coli [38] = test: Antimicrobial activity against Escherichia coli S5 expressing extended-spectrum beta-lactamase TEM-116 after 24 hrs; type: functional, organism-based
Escherichia coli [39] = test: Antimicrobial activity against Escherichia coli S6 expressing extended-spectrum beta-lactamase TEM-116 and SHV-12 after 24 hrs; type: functional, organism-based
Escherichia coli [40] = test: Antimicrobial activity against Escherichia coli S7 expressing extended-spectrum beta-lactamase SHV-12 and penicillinase TEM-1 after 24 hrs; type: functional, organism-based
Escherichia coli [41] = test: Antimicrobial activity against Escherichia coli S1 expressing penicillinase TEM-1 assessed as log reduction in bacterial count after 4 to 24 hrs in presence of magnesium ions; type: functional
Escherichia coli [42] = test: Antimicrobial activity against Escherichia coli S2 expressing penicillinase TEM-1 assessed as log reduction in bacterial count after 4 to 24 hrs in presence of magnesium ions; type: functional
Escherichia coli [43] = test: Antimicrobial activity against Escherichia coli S4 expressing inhibitor-resistant TEM-34 assessed as log reduction in bacterial count upto 8 hrs; type: functional
Escherichia coli [44] = test: Antimicrobial activity against Escherichia coli S3 overexpressing penicillinase TEM-1 assessed as log reduction in bacterial count upto 8 hrs; type: functional
Escherichia coli [45] = test: Antimicrobial activity against Escherichia coli S1 expressing penicillinase TEM-1 assessed as log reduction in bacterial count after 4 to 24 hrs in presence of calcium ions; type: functional
Escherichia coli [46] = test: Antimicrobial activity against Escherichia coli S2 expressing penicillinase TEM-1 assessed as log reduction in bacterial count after 4 to 24 hrs in presence of calcium ions; type: functional
Escherichia coli [47] = test: Antimicrobial activity against Escherichia coli S2 expressing penicillinase TEM-1 assessed as log reduction in bacterial count upto 8 hrs; type: functional
Escherichia coli [48] = test: Antimicrobial activity against Escherichia coli S1 expressing penicillinase TEM-1 assessed as log reduction in bacterial count upto 8 hrs; type: functional
Escherichia coli [49] = test: Antimicrobial activity against Escherichia coli S5 expressing extended-spectrum beta-lactamase TEM-116 assessed as log reduction in bacterial count from 3 to 24 hrs; type: functional
Escherichia coli [50] = test: Antimicrobial activity against Escherichia coli S5 expressing extended-spectrum beta-lactamase TEM-116 assessed as log reduction in bacterial count upto 8 hrs; type: functional
Escherichia coli [51] = test: Antimicrobial activity against Escherichia coli S6 expressing extended-spectrum beta-lactamase TEM-116 and SHV-12assessed as log reduction in bacterial count upto 8 hrs; type: functional

CC1(C)S[C@@H]2[C@H](NC(=O)[C@H](N)c3ccc(O)cc3)C(=O)N2[C@H]1C(=O)O [AMOXICILLIN]
MIC (Escherichia coli [1]): 8 mg/L (≈ 21.9 µM)
MIC (Escherichia coli [2]): 4 mg/L (≈ 10.9 µM)
MIC (Escherichia coli [3]): 32 mg/L (≈ 87.6 µM)
MIC (Escherichia coli [4]): 32 mg/L (≈ 87.6 µM)
MIC (Escherichia coli [5]): 4 mg/L (≈ 10.9 µM)
MIC (Escherichia coli [6]): 8 mg/L (≈ 21.9 µM)
MIC (Escherichia coli [7]): 16 mg/L (≈ 43.8 µM)
MIC (Escherichia coli [8]): 8 mg/L
MIC (Escherichia coli [9]): 4 mg/L
MIC (Escherichia coli [10]): 2 mg/L
MIC (Escherichia coli [11]): 16 mg/L
MIC (Escherichia coli [12]): 16 mg/L
MIC (Escherichia coli [13]): 2 mg/L
MIC (Escherichia coli [14]): 4 mg/L

CO/N=C(\C(=O)N[C@@H]1C(=O)N2C(C(=O)OCOC(=O)C(C)(C)C)=C(/C=C\c3scnc3C)CS[C@H]12)c1csc(N)n1 [CEFDITOREN PIVOXIL]
Drug uptake (Homo sapiens [15]): 12.7 µg/mL
MIC90 (Escherichia coli [16]): 0.5 mg/L (≈ 0.805 µM)
MIC (Escherichia coli [1]): 0.25 mg/L (≈ 0.403 µM)
MIC (Escherichia coli [2]): 1 mg/L (≈ 1.61 µM)
MIC (Escherichia coli [3]): 1 mg/L (≈ 1.61 µM)
MIC (Escherichia coli [4]): 2 mg/L (≈ 3.22 µM)
MIC (Escherichia coli [5]): 0.5 mg/L (≈ 0.805 µM)
MIC (Escherichia coli [6]): 8 mg/L (≈ 12.9 µM)
MIC (Escherichia coli [7]): 16 mg/L (≈ 25.8 µM)
CL (Homo sapiens [17]): 0.86 mL/min
CL (Homo sapiens [18]): 2.88 mL/min
CL (Homo sapiens [19]): 3.04 mL/min
Activity (Escherichia coli [20]): Active
Activity (Escherichia coli [21]): Active
Activity (Escherichia coli [22]): Active
Activity (Escherichia coli [23]): Active
Activity (Escherichia coli [24]): Active
Activity (Escherichia coli [25]): inactive
Activity (Escherichia coli [26]): inactive
Activity (Escherichia coli [27]): Active
Activity (Escherichia coli [28]): Active
Activity (Escherichia coli [29]): Active
Activity (Escherichia coli [30]): Active
Activity (Escherichia coli [31]): inactive
Activity (Escherichia coli [32]): inactive
Activity (Escherichia coli [33]): inactive
Activity (Escherichia coli [34]): Active
Activity (Escherichia coli [35]): Active
Activity (Escherichia coli [36]): Active
Activity (Escherichia coli [37]): Active
Activity (Escherichia coli [38]): inactive
Activity (Escherichia coli [39]): inactive
Activity (Escherichia coli [40]): inactive
FC (Escherichia coli [41]): >4
FC (Escherichia coli [42]): >4
FC (Escherichia coli [43]): >=6
FC (Escherichia coli [44]): >=5
FC (Escherichia coli [45]): >4
FC (Escherichia coli [46]): >4
FC (Escherichia coli [47]): >=4
FC (Escherichia coli [48]): >=3
FC (Escherichia coli [49]): >=3
FC (Escherichia coli [50]): >=7
FC (Escherichia coli [51]): >=8

CO/N=C(\C(=O)N[C@@H]1C(=O)N2C(C(=O)O)=C(COC(N)=O)CS[C@H]12)c1ccco1 [CEFUROXIME]
MIC (Escherichia coli [1]): 4 mg/L (≈ 9.43 µM)
MIC (Escherichia coli [2]): 4 mg/L (≈ 9.43 µM)
MIC (Escherichia coli [3]): 8 mg/L (≈ 18.9 µM)
MIC (Escherichia coli [4]): 4 mg/L (≈ 9.43 µM)
MIC (Escherichia coli [5]): 32 mg/L (≈ 75.4 µM)
MIC (Escherichia coli [6]): > 128 mg/L
MIC (Escherichia coli [7]): 32 mg/L (≈ 75.4 µM)

O=C(O)c1cn(C2CC2)c2cc(N3CCNCC3)c(F)cc2c1=O [CIPROFLOXACIN]
MIC (Escherichia coli [1]): 0.007 mg/L (≈ 0.0211 µM)
MIC (Escherichia coli [2]): > 32 mg/L
MIC (Escherichia coli [7]): > 32 mg/L
